According to patent US20080009418A1, “Selective Inhibitors” (Alchemia LTD., priority 2004, published 2008):

Columns and labels:
Settings in all cases: compound at 10 μM
Human δ-opioid (DOP) = target: T1, Human δ-opioid (DOP) (Homo sapiens, UniProt P41143); assay: Radioligand binding, human δ-opioid (DOP) membranes, FlashPlate, [3H]-Bremazocine
T1 construct: purchased Perkin Elmer Biosignal
Procedure, shortened: (§1)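 Cloned human receptor membranes were coated onto FlashPlate wells and incubated with radioligand and compound (added from a 0.5 mM DMSO daughter plate) for 1 hour at room temperature in the dark. Scintillation counting gave percent inhibition, with DMSO defining total and reference ligand defining non-specific binding.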

Human κ-Opioid (KOP) = target: T2, Human κ-Opioid (KOP) (Homo sapiens, UniProt P41145); assay: Radioligand binding, human κ-opioid (KOP) membranes, filtration, [3H]-Diprenorphine
T2 construct: purchased Perkin Elmer Biosignal
T2 sequence (P41145 whole entry): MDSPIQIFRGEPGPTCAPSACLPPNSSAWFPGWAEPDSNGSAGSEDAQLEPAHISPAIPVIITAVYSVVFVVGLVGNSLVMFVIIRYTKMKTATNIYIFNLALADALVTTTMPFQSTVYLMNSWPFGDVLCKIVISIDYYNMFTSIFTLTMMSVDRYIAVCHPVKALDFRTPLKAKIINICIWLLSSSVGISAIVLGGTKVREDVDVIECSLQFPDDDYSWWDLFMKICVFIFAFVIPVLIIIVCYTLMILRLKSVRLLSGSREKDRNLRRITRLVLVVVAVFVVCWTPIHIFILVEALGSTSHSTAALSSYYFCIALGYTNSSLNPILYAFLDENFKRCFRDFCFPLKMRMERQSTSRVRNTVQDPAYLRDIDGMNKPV
Procedure, shortened: (§2)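 Filtration binding on cloned human receptor membranes (1 Unit/well), [125I]-Substance P for NK1 and [3H]-Diprenorphine for KOP, 1 h at room temperature. Filters PEI-presoaked, washed with cold 50 mM Tris-HCl pH 7.4, counted by scintillation; percent inhibition calculated, reference ligand defining non-specific binding.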

Human Melanocortin (MC3) = target: T3, Human Melanocortin (MC3) (Homo sapiens, UniProt P41968); assay: Radioligand binding, human melanocortin MC3 membranes, FlashPlate, [125I]-NDP-αMSH
T3 construct: purchased Perkin Elmer Biosignal
T3 sequence (P41968 whole entry): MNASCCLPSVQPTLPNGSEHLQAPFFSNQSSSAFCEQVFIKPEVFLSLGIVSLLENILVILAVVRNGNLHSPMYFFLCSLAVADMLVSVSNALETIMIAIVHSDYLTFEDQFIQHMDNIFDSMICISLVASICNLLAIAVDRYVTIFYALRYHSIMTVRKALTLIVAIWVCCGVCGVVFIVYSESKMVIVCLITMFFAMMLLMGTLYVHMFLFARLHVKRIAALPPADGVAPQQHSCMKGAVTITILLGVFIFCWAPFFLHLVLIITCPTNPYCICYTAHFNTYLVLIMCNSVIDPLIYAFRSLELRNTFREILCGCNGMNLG
Procedure, shortened: as §1

Human Melanocortin (MC4) = target: T4, Human Melanocortin (MC4) (Homo sapiens, UniProt P32245); assay: Radioligand binding, human melanocortin MC4 membranes, FlashPlate, [125I]-NDP-αMSH
T4 construct: purchased Perkin Elmer Biosignal
T4 sequence (P32245 whole entry): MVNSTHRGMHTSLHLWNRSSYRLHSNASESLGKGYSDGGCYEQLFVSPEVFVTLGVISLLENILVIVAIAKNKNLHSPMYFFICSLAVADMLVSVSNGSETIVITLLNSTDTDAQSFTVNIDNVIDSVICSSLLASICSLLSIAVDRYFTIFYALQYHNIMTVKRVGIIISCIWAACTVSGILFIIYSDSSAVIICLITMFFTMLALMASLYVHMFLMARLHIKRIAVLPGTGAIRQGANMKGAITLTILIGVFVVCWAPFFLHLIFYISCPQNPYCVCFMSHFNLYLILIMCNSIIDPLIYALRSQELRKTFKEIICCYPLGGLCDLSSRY
Procedure, shortened: as §1

Human melanocortin (MC5) = target: T5, Human melanocortin (MC5) (Homo sapiens, UniProt P33032); assay: Radioligand binding, human melanocortin MC5 membranes, FlashPlate, [125I]-NDP-αMSH
T5 construct: purchased Perkin Elmer Biosignal
T5 sequence (P33032 whole entry): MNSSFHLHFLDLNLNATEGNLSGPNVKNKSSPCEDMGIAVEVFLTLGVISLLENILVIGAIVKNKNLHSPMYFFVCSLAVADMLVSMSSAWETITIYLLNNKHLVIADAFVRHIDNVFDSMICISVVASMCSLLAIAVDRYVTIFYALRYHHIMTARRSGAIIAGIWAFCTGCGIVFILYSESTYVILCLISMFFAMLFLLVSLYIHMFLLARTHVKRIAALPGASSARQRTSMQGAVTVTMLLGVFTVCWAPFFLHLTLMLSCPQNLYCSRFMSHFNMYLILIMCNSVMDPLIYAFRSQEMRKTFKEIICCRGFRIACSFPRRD
Procedure, shortened: as §1

[1] = target: T6, Human melanin-concentrating hormone (MCH1) (Homo sapiens, UniProt Q99705); assay: Radioligand binding, human melanin-concentrating hormone MCH1 membranes, FlashPlate, [125I]-S36057
T6 construct: purchased Perkin Elmer Biosignal
T6 sequence (Q99705 whole entry): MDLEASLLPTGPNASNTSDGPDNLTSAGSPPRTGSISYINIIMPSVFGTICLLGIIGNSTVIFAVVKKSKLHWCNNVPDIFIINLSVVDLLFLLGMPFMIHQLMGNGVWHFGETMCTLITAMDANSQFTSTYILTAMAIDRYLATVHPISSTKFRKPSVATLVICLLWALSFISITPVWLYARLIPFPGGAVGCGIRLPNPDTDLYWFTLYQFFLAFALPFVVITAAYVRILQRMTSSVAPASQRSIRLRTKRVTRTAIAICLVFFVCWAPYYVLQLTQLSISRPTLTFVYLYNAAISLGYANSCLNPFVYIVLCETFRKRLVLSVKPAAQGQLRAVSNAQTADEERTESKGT
Procedure, shortened: as §1

Human μ-opioid (MOP) = target: T7, Human μ-opioid (MOP) (Homo sapiens, UniProt P35372); assay: Radioligand binding, human μ-opioid (MOP) membranes, FlashPlate, [3H]-Naloxone
T7 construct: purchased Perkin Elmer Biosignal
T7 sequence (P35372 whole entry): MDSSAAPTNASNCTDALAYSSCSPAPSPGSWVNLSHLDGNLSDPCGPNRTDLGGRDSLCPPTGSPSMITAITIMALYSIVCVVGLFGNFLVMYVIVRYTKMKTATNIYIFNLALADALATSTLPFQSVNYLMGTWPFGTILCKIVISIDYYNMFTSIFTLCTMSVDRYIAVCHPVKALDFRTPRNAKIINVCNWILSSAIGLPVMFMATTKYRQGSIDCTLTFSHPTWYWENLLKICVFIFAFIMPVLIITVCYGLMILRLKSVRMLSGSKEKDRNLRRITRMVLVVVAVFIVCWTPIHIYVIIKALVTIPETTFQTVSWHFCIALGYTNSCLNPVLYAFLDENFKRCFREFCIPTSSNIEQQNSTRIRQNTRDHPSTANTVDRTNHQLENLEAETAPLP
Procedure, shortened: as §1

Human neurokinin (NK1) = target: T8, Human neurokinin (NK1) (Homo sapiens, UniProt P25103); assay: Radioligand binding, human neurokinin NK1 membranes, filtration, [125I]-Substance P
T8 construct: purchased Perkin Elmer Biosignal
T8 sequence (P25103 whole entry): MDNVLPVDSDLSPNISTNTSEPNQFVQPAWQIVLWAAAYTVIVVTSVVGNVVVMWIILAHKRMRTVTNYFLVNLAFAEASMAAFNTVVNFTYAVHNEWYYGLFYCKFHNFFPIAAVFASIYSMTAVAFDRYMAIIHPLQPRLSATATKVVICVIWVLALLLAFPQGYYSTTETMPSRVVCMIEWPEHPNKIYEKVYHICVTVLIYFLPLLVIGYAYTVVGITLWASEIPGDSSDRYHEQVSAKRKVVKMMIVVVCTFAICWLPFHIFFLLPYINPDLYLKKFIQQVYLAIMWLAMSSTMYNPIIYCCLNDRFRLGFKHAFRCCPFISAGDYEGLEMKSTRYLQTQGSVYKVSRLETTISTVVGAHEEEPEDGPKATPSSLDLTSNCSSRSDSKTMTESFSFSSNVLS
Procedure, shortened: as §2

[2] = target: T9, Human neuropeptide Y (NPY-Y1) (Homo sapiens, UniProt P25929); assay: Radioligand binding, human neuropeptide Y NPY-Y1 membranes, FlashPlate, [125I]-PYY
T9 construct: purchased Perkin Elmer Biosignal
T9 sequence (P25929 1-384): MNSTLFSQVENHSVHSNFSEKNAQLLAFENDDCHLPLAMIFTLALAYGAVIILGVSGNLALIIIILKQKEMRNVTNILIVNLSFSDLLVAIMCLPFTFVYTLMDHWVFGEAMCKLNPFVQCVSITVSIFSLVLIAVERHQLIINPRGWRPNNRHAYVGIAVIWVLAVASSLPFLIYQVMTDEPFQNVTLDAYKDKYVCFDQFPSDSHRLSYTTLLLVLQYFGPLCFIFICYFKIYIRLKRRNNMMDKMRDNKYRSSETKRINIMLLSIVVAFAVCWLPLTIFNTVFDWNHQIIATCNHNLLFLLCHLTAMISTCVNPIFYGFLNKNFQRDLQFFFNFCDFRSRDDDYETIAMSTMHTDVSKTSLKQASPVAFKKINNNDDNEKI
Procedure, shortened: as §1

Human opioid (ORL1) = target: T10, Human opioid (ORL1) (Homo sapiens, UniProt P41146); assay: Radioligand binding, human opioid ORL1 membranes, FlashPlate, [125I]-Nociceptin
T10 construct: purchased Perkin Elmer Biosignal
T10 sequence (P41146 whole entry): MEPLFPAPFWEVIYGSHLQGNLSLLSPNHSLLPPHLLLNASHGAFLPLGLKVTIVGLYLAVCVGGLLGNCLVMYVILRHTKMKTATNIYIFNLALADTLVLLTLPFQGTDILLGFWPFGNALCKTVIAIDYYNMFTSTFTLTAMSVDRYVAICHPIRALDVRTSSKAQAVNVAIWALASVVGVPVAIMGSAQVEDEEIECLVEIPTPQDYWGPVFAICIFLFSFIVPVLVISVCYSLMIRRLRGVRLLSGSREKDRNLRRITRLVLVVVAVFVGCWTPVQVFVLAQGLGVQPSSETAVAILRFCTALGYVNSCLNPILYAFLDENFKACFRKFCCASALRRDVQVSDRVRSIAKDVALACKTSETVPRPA
Procedure, shortened: as §1

Mouse urotensin (mUR2) = target: T11, Mouse urotensin (mUR2) (Mus musculus, UniProt Q8VIH9); assay: Radioligand binding, mouse urotensin mUR2 membranes, FlashPlate, [125I]-Urotensin II
T11 construct: purchased Perkin Elmer Biosignal
T11 sequence (Q8VIH9 1-385): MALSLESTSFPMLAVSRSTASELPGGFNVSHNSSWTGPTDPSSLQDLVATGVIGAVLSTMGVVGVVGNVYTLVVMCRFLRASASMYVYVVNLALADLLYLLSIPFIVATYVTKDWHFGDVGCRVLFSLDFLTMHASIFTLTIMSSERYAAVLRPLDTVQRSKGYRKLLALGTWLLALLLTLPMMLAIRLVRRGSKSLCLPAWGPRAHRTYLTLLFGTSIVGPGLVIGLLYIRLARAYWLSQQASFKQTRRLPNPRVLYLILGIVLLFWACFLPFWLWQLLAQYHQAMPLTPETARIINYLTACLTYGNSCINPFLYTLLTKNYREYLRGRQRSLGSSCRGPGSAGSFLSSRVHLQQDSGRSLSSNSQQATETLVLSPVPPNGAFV
Procedure, shortened: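 Cloned mouse urotensin (mUR2) receptor membranes from Perkin Elmer Biosignal were immobilized in FlashPlate microplates using a proprietary coating. Each well got 19.5 μl buffer, then 0.5 μl of DMSO, reference ligand, or compound. Adding 5 μl of [125I]-Urotensin II, diluted to 5× final concentration in binding buffer, started binding. Plates were sealed with TopSeal-A and incubated 1 hour at room temperature in the dark. Wells were counted for 30 seconds each on a TopCount after a 60-second delay, and percentage inhibition was calculated.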

T1 sequence (P41143 whole entry): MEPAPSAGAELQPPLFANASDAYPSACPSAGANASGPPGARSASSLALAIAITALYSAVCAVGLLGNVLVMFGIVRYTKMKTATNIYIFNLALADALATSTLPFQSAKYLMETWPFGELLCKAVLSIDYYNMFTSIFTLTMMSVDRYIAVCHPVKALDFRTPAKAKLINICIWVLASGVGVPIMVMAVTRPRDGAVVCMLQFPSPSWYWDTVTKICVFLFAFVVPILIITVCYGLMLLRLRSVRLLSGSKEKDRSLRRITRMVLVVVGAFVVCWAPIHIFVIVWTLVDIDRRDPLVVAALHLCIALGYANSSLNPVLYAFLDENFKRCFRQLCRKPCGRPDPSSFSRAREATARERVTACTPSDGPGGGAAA

## NCCCC(=O)NC1C(OCc2ccc(Cl)cc2)OC(COCc2ccc3ccccc3c2)C(O)C1OCc1ccc2ccccc2c1 (single isomer, unassigned) [compound 495]
Human δ-opioid (DOP); [3H]-Bremazocine
  A1: inhibition of radioligand binding, human δ-opioid (DOP): − (“−” indicates less than 50% inhibition at 10 μM)
Human κ-Opioid (KOP); [3H]-Diprenorphine
  A2: inhibition of radioligand binding, human κ-opioid (KOP): − (“−” indicates less than 50% inhibition at 10 μM)
Human Melanocortin (MC3); [125I]-NDP-αMSH
  A3: inhibition of radioligand binding, human melanocortin (MC3): + (“+” indicates greater than 50% inhibition at 10 μM)
Human Melanocortin (MC4); [125I]-NDP-αMSH
  A4: inhibition of radioligand binding, human melanocortin (MC4): + (“+” indicates greater than 50% inhibition at 10 μM)
Human melanocortin (MC5); [125I]-NDP-αMSH
  A5: inhibition of radioligand binding, human melanocortin (MC5): + (“+” indicates greater than 50% inhibition at 10 μM)
[1]; [125I]-S36057
  A6: inhibition of radioligand binding, human melanin-concentrating hormone (MCH1): + (“+” indicates greater than 50% inhibition at 10 μM)
Human μ-opioid (MOP); [3H]-Naloxone
  A7: inhibition of radioligand binding, human μ-opioid (MOP): + (“+” indicates greater than 50% inhibition at 10 μM)
Human neurokinin (NK1); [125I]-Substance P
  A8: inhibition of radioligand binding, human neurokinin (NK1): + (“+” indicates greater than 50% inhibition at 10 μM)
[2]; [125I]-PYY
  A9: inhibition of radioligand binding, human neuropeptide Y (NPY-Y1): − (“−” indicates less than 50% inhibition at 10 μM)
Human opioid (ORL1); [125I]-Nociceptin
  A10: inhibition of radioligand binding, human opioid (ORL1): + (“+” indicates greater than 50% inhibition at 10 μM)
Mouse urotensin (mUR2); [125I]-Urotensin II
  A11: inhibition of radioligand binding, mouse urotensin (mUR2): − (“−” indicates less than 50% inhibition at 10 μM)

## CO[C@H]1[C@H](O)[C@@H](COCc2ccc(Cl)cc2)OC(OCCc2ccccc2)[C@@H]1NC(=O)CCCN (stereo partly drawn) [compound 121]
Human δ-opioid (DOP); [3H]-Bremazocine
  A1 radioligand binding, percentage inhibition: − (“−” indicates less than 50% inhibition at 10 μM)
Human κ-Opioid (KOP); [3H]-Diprenorphine
  A2 radioligand binding, percentage inhibition: − (“−” indicates less than 50% inhibition at 10 μM)
Human Melanocortin (MC3); [125I]-NDP-αMSH
  A3 radioligand binding, percentage inhibition: − (“−” indicates less than 50% inhibition at 10 μM)
Human Melanocortin (MC4); [125I]-NDP-αMSH
  A4 radioligand binding, percentage inhibition: − (“−” indicates less than 50% inhibition at 10 μM)
Human melanocortin (MC5); [125I]-NDP-αMSH
  A5 radioligand binding, percentage inhibition: + (“+” indicates greater than 50% inhibition at 10 μM)
[1]; [125I]-S36057
  A6 radioligand binding, percentage inhibition: − (“−” indicates less than 50% inhibition at 10 μM)
Human μ-opioid (MOP); [3H]-Naloxone
  A7 radioligand binding, percentage inhibition: − (“−” indicates less than 50% inhibition at 10 μM)
Human neurokinin (NK1); [125I]-Substance P
  A8 radioligand binding, percentage inhibition: + (“+” indicates greater than 50% inhibition at 10 μM)
[2]; [125I]-PYY
  A9 radioligand binding, percentage inhibition: − (“−” indicates less than 50% inhibition at 10 μM)
Human opioid (ORL1); [125I]-Nociceptin
  A10 radioligand binding, percentage inhibition: − (“−” indicates less than 50% inhibition at 10 μM)
Mouse urotensin (mUR2); [125I]-Urotensin II
  A11 radioligand binding, percentage inhibition: − (“−” indicates less than 50% inhibition at 10 μM)

## COC[C@H]1OC(OCc2ccc(-c3ccccc3)cc2)[C@H](NC(=O)CCNC(=N)N)[C@@H](OCc2ccc(Cl)cc2)[C@@H]1O (stereo partly drawn) [compound 11]
Human δ-opioid (DOP); human δ-opioid (DOP) membranes
  A1 radioligand binding inhibition: + (“+” indicates greater than 50% inhibition at 10 μM)
Human κ-Opioid (KOP); human κ-opioid (KOP) membranes
  A2 radioligand binding inhibition: + (“+” indicates greater than 50% inhibition at 10 μM)
Human Melanocortin (MC3); human melanocortin MC3 membranes
  A3 radioligand binding inhibition: − (“−” indicates less than 50% inhibition at 10 μM)
Human Melanocortin (MC4); human melanocortin MC4 membranes
  A4 radioligand binding inhibition: + (“+” indicates greater than 50% inhibition at 10 μM)
Human melanocortin (MC5); human melanocortin MC5 membranes
  A5 radioligand binding inhibition: + (“+” indicates greater than 50% inhibition at 10 μM)
[1]; human MCH1 membranes
  A6 radioligand binding inhibition: + (“+” indicates greater than 50% inhibition at 10 μM)
Human μ-opioid (MOP); human μ-opioid (MOP) membranes
  A7 radioligand binding inhibition: + (“+” indicates greater than 50% inhibition at 10 μM)
Human neurokinin (NK1); human neurokinin NK1 membranes
  A8 radioligand binding inhibition: + (“+” indicates greater than 50% inhibition at 10 μM)
[2]; human NPY-Y1 membranes
  A9 radioligand binding inhibition: − (“−” indicates less than 50% inhibition at 10 μM)
Human opioid (ORL1); human ORL1 membranes
  A10 radioligand binding inhibition: − (“−” indicates less than 50% inhibition at 10 μM)
Mouse urotensin (mUR2); mouse urotensin mUR2 membranes
  A11 radioligand binding inhibition: − (“−” indicates less than 50% inhibition at 10 μM)
